The test system of the experiment is asexual P. falciparum 3D7 parasites. In words: P. falciparum growth inhibition assay measuring LDH activity (Assay 1). In kind it is cell-based. The following applies: 3D7 strain, parasitized red blood cells, 72 h incubation, LDH activity read by absorbance at 650 nm. The procedure: A modified version of the assay described in Gamo, F. J., Sanz, L. M., Vidal, J., de Cozar, C., Alvarez, E., Lavandera, J. L., Vanderwall, D. E., Green, D. V., Kumar, V., Hasan, S., Brown, J. R., Peishoff, C. E., Cardon, L. R., Garcia-Bustos, J. F., Nature, 465 (2010) 305-310 (Gamo et al.) was used to assess the activity of compounds against asexual P. falciparum 3D7 parasites. Compounds were pre-dispensed in 384-well plates, RPMI/AlbuMAX growth media was added and P. falciparum inoculated. Plates were incubated for 72 h and then frozen at −80° C. overnight. Lactate dehydrogenase (LDH) activity was quantified with the modified cofactor 3-acetylpyridine adenine dinucleotide (APAD) (Sigma Aldrich) by measuring absorbance of the tetrazolium indicator nitro blue tetrazolium (NBT) (Sigma Aldrich) at 650 nm.
An inoculum of synchronous P. falciparum (3D7 strain) parasitized red blood cells (PRBC) at 0.7% parasitaemia and 2% haematocrit in RPMI-1640, 5% AlbuMAX, 2% D-sucrose, 0.3% glutamine and 150 μM hypoxanthine was used for the assay.
Compound master plates (384-well) were prepared by a 10 pt serial dilution of compounds, from 1 mM to 50.8 nM, in columns 3-12 and 13-22. DMSO was dispensed into columns 1 and 23 of the compound master plate to be used as the positive growth control (100% viability). […] Intermediate compound dilution plates were prepared by dispensing 1 μl from each well of the compound master plate into 11.5 μl of RPMI/AlbuMAX growth media. Duplicate assay plates (384-well) were then prepared by dispensing 0.5 μL of compound from the intermediate dilution plates into 9.5 μl of RPMI/AlbuMAX growth media. The parasite inoculum (30 μL) was dispensed into the assay plates containing compounds using a Multidrop dispenser (Thermo Scientific) such that the final assay volume was 40 μL and final compound concentration was 1 μM-0.05 nM (the volume of compound addition can be adjusted to the preferred and agreed screening concentration). The final DMSO concentration was 0.1% (ideally 0.2% to limit toxicity to parasites), but this is dependent on volume of compound DMSO stock solution that can be supplied. Plates were incubated at 37° C. for 72 h in an atmosphere of 5% CO2, 5% O2, […].
After 72 h of incubation, plates were frozen at −80° C. overnight and then thawed at room temperature for at least 4 h. To evaluate LDH activity, 45 μL of freshly made reaction mix (174 mM sodium L-lactate (Sigma Aldrich), 214 μM 3-acetyl pyridine adenine dinucleotide (APAD) (Sigma Aldrich), 270 μM nitro blue tetrazolium chloride (NBT) (Sigma Aldrich), 4.35 U/mL diaphorase (from Clostridium kluyveri) (Sigma Aldrich), 0.7% Tween 20, 100 mM Tris-HCl pH 7.5) was dispensed using a Multidrop dispenser (Thermo Scientific). Plates were shaken to ensure mixing and absorbance at 650 nm was monitored using a Perkin Elmer Envision plate reader after 30 min of incubation at room temperature. Data were normalized to percent growth inhibition using positive and negative controls, and analysed using TIBCO Spotfire software. […]

Setting [1] is: Plasmodium falciparum, 3D7, Erythrocyte, 72 h.

Take `CC(C)[C@]1(C)CC(=O)N(C(c2ccccc2)c2cccc(C(=O)N3Cc4nccnc4C3)c2)C(=N)N1` (some centres unmarked) [Compound 52]: 270 nM corresponded to half-maximal inhibition under setting [1] (IC50).
Under setting [1], `CCC1(CC)CC(=O)N(Cc2cc(F)cc(C(=O)N3Cc4nccnc4C3)c2)C(=N)N1` [Compound 53] displayed a half-inhibitory concentration (IC50) of 870 nM.
Consider `CC1(C)CC(=O)N(C(c2ccccc2)c2cccc(C(=O)N3Cc4ccccc4C3)c2)C(=N)N1` (centres unmarked) [Compound 54], for which the IC50 under setting [1] is 390 nM.
With `CC(C)[C@]1(C)CC(=O)N(C(c2ccccc2)c2cccc(C(=O)N[C@@H](C)c3ccccc3)c2)C(=N)N1` (some centres unmarked) [Compound 55], half-maximal inhibition (IC50) required 3.5 nM.
Take `CC(C)[C@]1(C)CC(=O)N(C(c2ccccc2)c2cccc(C(=O)N[C@@H](C)c3ccccc3)c2)C(=N)N1` (some centres unmarked) [Compound 56]: the concentration for half-maximal inhibition (IC50) came out at 360 nM.

For orientation: IC50 means the concentration that inhibits the measured activity by half. High values mean weaker potency in that assay, low ones greater potency in that assay.
